The text below walks through data of patent US20090298817A1, “ANTI-AMNESIC COMPOUNDS AND PHARMACEUTICAL CO[…]” (priority 2008, published 2009).

SMILES strings stand for the structures.

This experiment concerns amnesia induced by scopolamine in rats. Briefly: passive avoidance test, amnesia induced by scopolamine in rats. It counts as in vivo. The procedure: The purpose of the study is to examine the effects of etifoxine on amnesia, induced by a substance which is an antagonist of the cholinergic receptors in rats, scopolamine (see in particular Rush (1988) Behav. Neural. Biol. 1988 50:255-274).
Memory capacities are evaluated over the course of the passive avoidance test in a box with two compartments, dark and light. In a first step, the acquisition step, entering the dark compartment is associated with an unpleasant electric shock. In a second step, the retention step, the latency to enter the dark compartment is measured. The lower this latency, the more strongly the animal is suffering from amnesia.
Amnesia is induced by administering scopolamine 30 minutes before the information acquisition step.
Two series of tests were performed: • 1) Etifoxine was administered intraperitoneally 35 minutes before acquisition of the event. • 7 groups of 10 to 20 rats were formed, each group receiving the following respective treatments: • Group 1 (reference): scopolamine 0 mg/kg, etifoxine 0 mg/kg • Group 2 (control): scopolamine 0 mg/kg, etifoxine 50 mg/kg • Group 3: scopolamine 1.4 mg/kg, etifoxine 0 mg/kg • Group 4: scopolamine 1.4 mg/kg, etifoxine 6.2 mg/kg • Group 5: scopolamine 1.4 mg/kg, etifoxine 12.5 mg/kg • Group 6: scopolamine 1.4 mg/kg, etifoxine 25 mg/kg • Group 7: scopolamine 1.4 mg/kg, etifoxine 50 mg/kg • 2) Etifoxine was administered intraperitoneally immediately after acquisition of the event. • 7 groups of 10 rats were formed, each group receiving the following respective treatments: • Group 1 (reference): scopolamine 0 mg/kg, etifoxine 0 mg/kg • Group 2 (control): scopolamine 0 mg/kg, etifoxine 50 mg/kg • Group 3: scopolamine 1.4 mg/kg, etifoxine 0 mg/kg • Group 4: scopolamine 1.4 mg/kg, etifoxine 6.2 mg/kg • Group 5: scopolamine 1.4 mg/kg, etifoxine 12.5 mg/kg • Group 6: scopolamine 1.4 mg/kg, etifoxine 25 mg/kg • Group 7: scopolamine 1.4 mg/kg, etifoxine 50 mg/kg
For each test series and for each group the latency to enter the dark compartment was measured in the case of acquisition and in the case of retention.
For the first series of tests, a one-way ANOVA analysis was performed followed by the Student-Newman-Keuls test in order to find the differences between the groups. The difference is considered significant if the critical value P obtained was less than 0.05.
For the second series of tests, the non-parametric Kruskal-Wallis test was performed followed by the Dunn test in order to find the differences between the groups. The difference is considered significant if the critical value P obtained was less than 0.05.

For `CN1[C@@H]2C[C@@H](OC(=O)[C@H](CO)c3ccccc3)C[C@H]1[C@@H]1O[C@@H]12` [Scopolamine], the “time period to enter the dark compartment vs. reference groups” value (rats, scopolamine 1.4 mg/kg 30 minutes before acquisition, etifoxine 0, FIGS. 1, 2) is “significantly shorter”.

For the compound `CCNC1=Nc2ccc(Cl)cc2C(C)(c2ccccc2)O1.Cl` (stereo not shown) [etifoxine, 6-chloro-2-ethylamino-4-methyl-4-phenyl-4H-[3,1]benzoxazine hydrochloride], the anti-amnesic action result (animals, model where memory disorder is induced by scopolamine (summary statement)) was “exhibits anti-amnesic action”. Further, the “effect on the amnesic effects of scopolamine (latency to enter the dark compartment, retention)” value (rats, etifoxine 6.2-50 mg/kg intraperitoneally 35 minutes before acquisition, scopolamine 1.4 mg/kg 30 minutes before acquisition, FIG. 1) was “counteracts the amnesic effects of scopolamine according to an inverted U-shaped curve” and the “effect on the amnesic effects of scopolamine (latency to enter the dark compartment, retention)” value (rats, etifoxine 6.2-50 mg/kg intraperitoneally immediately after acquisition, scopolamine 1.4 mg/kg 30 minutes before acquisition, FIG. 2) is reported as “counteracts the amnesic effects of scopolamine according to an inverted U-shaped curve”.
